Experimental data from PMC10317891, “Fibroblast activation protein targeted radiotherapy induces an immunogenic tumor microenvironment and enhances the efficacy of PD-1 immune checkpoint inhibition” (European Journal of Nuclear Medicine and Molecular Imaging, 2023).
Numbered stars: 1 amine (or outer) side, 2 acyl side, 3 side chain; on linkers, the order of the positions; unused ones are H or OH. Bridge positions count the residues as written; N and C are the ends. Peptide text beside a SMILES is read from it. * marks the point of attachment. X1 = O=C(O)CN1CCN(CC(=O)O)CCN(CC(=O)N2CCN(Cc3cc(C[*:1])cc(C[*:2])c3)CC2)CCN(CC(=O)O)CC1; Hexanoyl = CCCCCC(=O)*

Assay: Plasma stability
Type: in vitro ADME
Settings: 10 µM, 37°C, UHPLC-QTOF MS with internal standard; for Plasma Stability (24 h) Human Plasma: human plasma with 3.8% sodium citrate; for Plasma Stability (24 h) Mouse Plasma: mouse plasma with 3.8% sodium citrate
Experimental: FAP-2287 was incubated in 50 µL of plasma with 3.8% sodium citrate as anticoagulant at a concentration of 10 µM. After 1, 2, 4, and 24 hours incubation at 37°C a suitable internal standard was added. FAP-2287 with plasma proteins were precipitated using 250 µL of a precipitation agent consisting of 1% trifluoroacetic acid in acetonitrile. Precipitation was carried out at room temperature for 30 minutes. After centrifugation at 18,200 relative centrifugal force (rcf) for 5 minutes, 100 µL of the supernatant was mixed with 100 µL of 1% formic acid.
A nonincubated plasma sample spiked with 10 µM sample concentration was prepared in the same way and was used as the reference. A pure plasma sample was incubated for 24 hours as a blank sample. A further pure plasma sample was incubated for 24 hours, processed as described above and spiked directly before analysis to determine the recovery. The samples were analyzed using an Agilent 1290 UHPLC system coupled to an Agilent 6530 QTOF mass spectrometer.
For the quantitative data analysis, the Agilent Quantitative Analysis B.08.00 software (RRID:SCR_015040) was used. The ion currents of the triply charged proton adducts of the compounds were extracted with a mass window of ±50 parts per million and the chromatographic peak was integrated. The concentration of the compound was determined by external matrix calibration with internal standard using 6 calibration samples (1, 2.5, 5, 7.5, 10, and 12.5 µM). A quadratic regression was performed. Carryover was determined by analyzing the blank sample directly after the highest calibration sample and comparing the determined peak areas. Recovery was calculated as the ratio between the spiked concentration of the recovery sample and the concentration calculated from the peak area of this sample.

Structure (SMILES): CCCCCC(=O)N[C@H]1CSCc2cc(cc(CN3CCN(C(=O)CN4CCN(CC(=O)O)CCN(CC(=O)O)CCN(CC(=O)O)CC4)CC3)c2)CSC[C@@H](C(=O)N[C@@H](CC(=O)O)C(N)=O)NC(=O)[C@H](Cc2ccccc2)NC(=O)[C@H](CCC(N)=O)NC(=O)[C@H]([C@@H](C)O)NC(=O)[C@@H]2CCCN2C(=O)[C@@H]2CCCN2C1=O [FAP-2287] (Hexanoyl-CPPTQFCD-NH2; linker 1-7 via X1)
- Plasma Stability (24 h) Human Plasma: > 80%
- Plasma Stability (24 h) Mouse Plasma: > 80%

Structure (SMILES): CCCCCC(=O)N[C@H]1CSCc2cc(cc(CN3CCN(C(=O)CN4CCN(CC(=O)O)CCN(CC(=O)O)CCN(CC(=O)O)CC4)CC3)c2)CSC[C@@H](C(=O)N[C@@H](CC(=O)O)C(N)=O)NC(=O)[C@H](Cc2ccccc2)NC(=O)[C@H](CCC(N)=O)NC(=O)[C@H]([C@@H](C)O)NC(=O)[C@@H]2CCCN2C(=O)[C@@H]2CCCN2C1=O [natLu-FAP-2287, metal not drawn] (Hexanoyl-CPPTQFCD-NH2; linker 1-7 via X1; N-terminus and C-terminus assumed)
- Plasma Stability (24 h) Human Plasma: > 80%
- Plasma Stability (24 h) Mouse Plasma: > 80%
